Source: US20250011300A1, “PIPERAZINYLSULFONYLARYL COMPOUNDS FOR TREATMENT OF BACTERIAL INFECTIONS” (Hoffmann-La Roche Inc., priority 2021, published 2025)
Values after ≈ are worked out from the molar mass of the structure shown. Values belong to the compound of their own block, whether it stands above or below them.

How the values were obtained:
[1] = test system: K. pneumonia (ATCC 43816); experiment: Minimal Inhibitory Concentration (MIC) assay, K. pneumonia; type: cell-based; settings: Klebsiella pneumoniae; K. pneumoniae ATCC43816, CAMHB, 20 hours at 35° C.; read-out: MIC K. pneumoniae ATCC43816
Description: (§1) Example 122: Minimal Inhibitory Concentration Protocol (MIC) Assay
(§2) The in vitro potency of compounds to inhibit E. coli (ATCC 25922) and K. pneumonia (ATCC 43816) growth was assessed by MIC (Minimal Inhibitory Concentration) assay. Samples were prepared from 10 mM DMSO stock solutions. After serial 2-fold dilution in DMSO in a master plate (Greiner, Cat No: 651201), 180 μL sterile distilled water was added to 20 μL each aliquot of the samples. Then 10 μL diluted compounds were transferred into a new assay plate (Costar, 3599).
(§3) The growth medium Cation-Adjusted Mueller Hinton Broth (CAMHB) was prepared by adding the 20 mg per liter CaCl2) and 20 mg per liter MgCl2 into the MHB medium (Jianglai Company, sterilized).
(§4) Vials of each of the test microorganisms were maintained frozen in the vapor phase of a liquid nitrogen freezer. The bacteria E. coli ATCC 25922 (KWIKSTIK, 0335K) and K. pneumonia ATCC 43816 were taken out from liquid nitrogen freezer, then thawed in room temperature, and diluted in the CAMHB medium to achieve a final inoculum of 5×10^5 CFU/mL. 90 μL CAMHB with bacteria was dispensed to the assay plate and pipetted 5 times.
(§5) Then the assay plates were incubated for 20 hours at 35° C. in ambient air. Following incubation, the MIC (μg/mL), the lowest concentration of drug that inhibits visible growth of the microorganism was read and recorded throw the microscope.

E. coli (ATCC 25922) = experiment: Minimal Inhibitory Concentration (MIC) assay, E. coli; type: cell-based; settings: Escherichia coli, ATCC25922; E. coli ATCC 25922, CAMHB, 20 hours at 35° C.; read-out: MIC E. coli ATCC 25922
Description: as §1, §2, §3, §4, §5

[2] = target: Escherichia coli LpxH (UDP-2,3-diacylglucosamine hydrolase) (Escherichia coli (strain K12), UniProt P43341); experiment: 50% Inhibitory Concentration (IC50) to LpxH, UMP/CMP-Glo Glycosyltransferase Assay kit; type: biochemical
Description: Example 121: 50% Inhibitory Concentration (IC50) to UDP-2,3-diacylglucosamine hydrolase (LpxH)
The inhibitory potency of molecules to UDP-2,3-diacylglucosamine hydrolase (LpxH) was determined using the UMP/CMP-Glo™ Glycosyltransferase Assay kit. LpxH hydrolyzes the pyrophosphate bond of UDP-2,3-diacylglucosamine (UDP-DAG) to yield 2,3-diacylglucosamine 1-phosphate (lipid X) and UMP. The assay kit could quantify the UMP production by convert the UMP to ATP and generate light in a luciferase reaction. The compound's effect on the LpxH activity is detected by measuring the light using a luminometer (Envision).

Chain of Escherichia coli LpxH (UDP-2,3-diacylglucosamine hydrolase) (P43341 whole entry): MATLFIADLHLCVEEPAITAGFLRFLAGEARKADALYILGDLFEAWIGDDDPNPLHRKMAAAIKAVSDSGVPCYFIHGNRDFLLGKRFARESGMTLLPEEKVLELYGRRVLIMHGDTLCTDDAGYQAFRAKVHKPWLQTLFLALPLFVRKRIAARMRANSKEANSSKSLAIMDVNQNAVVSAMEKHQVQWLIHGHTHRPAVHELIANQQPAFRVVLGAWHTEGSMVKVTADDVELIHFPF

Compound: N[C@@H]1CC(=O)N(c2ccc(S(=O)(=O)N3CCN(c4cc(C(F)(F)[C@H]5CCCNC5)cc(Cl)n4)CC3)cc2)C1 [Example 108, (4R)-4-amino-1-[4-[4-[6-chloro-4-[difluoro-[(3S)-3-piperidyl]methyl]-2-pyridyl]piperazin-1-yl]sulfonylphenyl]pyrrolidin-2-one]
MIC [1]: 4.98 µg/mL (≈ 8.75 µM) | MIC (E. coli (ATCC 25922)): 4.98 µg/mL (≈ 8.75 µM) | IC50 [2]: 35.1 nM

Compound: O=C1O[C@@H]2CCCNC[C@@H]2N1c1ccc(S(=O)(=O)N2CCN(c3cc(C(F)(F)F)cc(Cl)n3)CC2)cc1 [Example 19, (3aS,8aR)-3-[4-[4-[6-chloro-4-(trifluoromethyl)-2-pyridyl]piperazin-1-yl]sulfonylphenyl]-4,5,6,7,8,8a-hexahydro-3aH-oxazolo[4,5-c]azepin-2-one]
MIC [1]: 1.05 µg/mL (≈ 1.88 µM) | MIC (E. coli (ATCC 25922)): 1.05 µg/mL (≈ 1.88 µM) | IC50 [2]: 33.9 nM

Compound: O=C1CC2NCCC2N1c1ccc(S(=O)(=O)N2CCN(c3cc(C(F)(F)F)cc(Cl)n3)CC2)cc1 (stereo not shown) [Example 20, 4-[4-[4-[6-Chloro-4-(trifluoromethyl)-2-pyridyl]piperazin-1-yl]sulfonylphenyl]-1,2,3,3a,6,6a-hexahydropyrrolo[3,2-b]pyrrol-5-one]
MIC [1]: 3.54 µg/mL (≈ 6.68 µM) | MIC (E. coli (ATCC 25922)): 1.77 µg/mL (≈ 3.34 µM) | IC50 [2]: 62.3 nM

Compound: Cc1nc(N2CCN(S(=O)(=O)c3ccc(N4C[C@H](N)CC4=O)cc3)CC2)cc(C(F)(F)c2ccccc2)n1 [Example 83, (4R)-4-Amino-1-[4-[4-[6-[difluoro(phenyl)methyl]-2-methyl-pyrimidin-4-yl]piperazin-1-yl]sulfonylphenyl]pyrrolidin-2-one]
MIC [1]: 1.7 µg/mL (≈ 3.13 µM) | MIC (E. coli (ATCC 25922)): 1.7 µg/mL (≈ 3.13 µM) | IC50 [2]: 3.69 nM

Compound: NC1CC(=O)N(c2ccc(S(=O)(=O)N3CCN(c4cc(C(F)(F)C5CC6CCC(C5)O6)cc(Cl)n4)CC3)cc2)C1 (stereo not shown) [Example 100, 4-Amino-1-[4-[4-[6-chloro-4-[difluoro(8-oxabicyclo[3.2.1]octan-3-yl)methyl]-2-pyridyl]piperazin-1-yl]sulfonylphenyl]pyrrolidin-2-one]
MIC [1]: 0.93 µg/mL (≈ 1.56 µM) | MIC (E. coli (ATCC 25922)): 1.86 µg/mL (≈ 3.12 µM) | IC50 [2]: < 3.36 nM

Compound: O=C1O[C@@H]2CCNC[C@@H]2N1c1ccc(S(=O)(=O)N2CCN(c3cc(C(F)(F)F)cc(Cl)n3)CC2)cc1 [Example 18, (3aS,7aR)-3-[4-[4-[6-chloro-4-(trifluoromethyl)-2-pyridyl]piperazin-1-yl]sulfonylphenyl]-3a,4,5,6,7,7a-hexahydrooxazolo[4,5-c]pyridin-2-one]
MIC [1]: 0.91 µg/mL (≈ 1.67 µM) | MIC (E. coli (ATCC 25922)): 0.91 µg/mL (≈ 1.67 µM) | IC50 [2]: 152 nM

Compound: N[C@@H]1CC(=O)N(c2ccc(S(=O)(=O)N3CCN(c4cc(C(F)(F)[C@H]5CNCCO5)cc(Cl)n4)CC3)cc2)C1 [Example 105, (4R)-4-amino-1-[4-[4-[6-chloro-4-[difluoro-[(2R)-morpholin-2-yl]methyl]-2-pyridyl]piperazin-1-yl]sulfonylphenyl]pyrrolidin-2-one]
MIC [1]: 1.79 µg/mL (≈ 3.13 µM) | MIC (E. coli (ATCC 25922)): 1.79 µg/mL (≈ 3.13 µM) | IC50 [2]: 5.25 nM

Compound: O=C1CC(CN2CCNCC2)CN1c1ccc(S(=O)(=O)N2CCN(c3cc(C(F)(F)F)cc(Cl)n3)CC2)cc1 (stereo not shown) [Example 41, 1-[4-[4-[6-Chloro-4-(trifluoromethyl)-2-pyridyl]piperazin-1-yl]sulfonylphenyl]-4-(piperazin-1-ylmethyl)pyrrolidin-2-one]
MIC [1]: 2.55 µg/mL (≈ 4.34 µM) | MIC (E. coli (ATCC 25922)): 1.27 µg/mL (≈ 2.16 µM) | IC50 [2]: 10.2 nM

Compound: O=C1OC2C(O)C(CO)OC2N1c1ccc(S(=O)(=O)N2CCN(c3cc(C(F)(F)F)cc(Cl)n3)CC2)cc1 (stereo not shown) [Example 21, 3-[4-[4-[6-Chloro-4-(trifluoromethyl)-2-pyridyl]piperazin-1-yl]sulfonylphenyl]-6-hydroxy-5-(hydroxymethyl)-3a,5,6,6a-tetrahydrofuro[2,3-d]oxazol-2-one]
MIC [1]: 1.81 µg/mL (≈ 3.13 µM) | MIC (E. coli (ATCC 25922)): 0.91 µg/mL (≈ 1.57 µM) | IC50 [2]: 10.4 nM

Compound: CN(C)CC1CN(c2ccc(S(=O)(=O)N3CCN(c4cc(C(F)(F)F)cc(Cl)n4)CC3)cc2)C(=O)O1 (stereo not shown) [Example 28, 3-[4-[4-[6-Chloro-4-(trifluoromethyl)-2-pyridyl]piperazin-1-yl]sulfonylphenyl]-5-[(dimethylamino)methyl]oxazolidin-2-one]
MIC [1]: 1.83 µg/mL (≈ 3.34 µM) | MIC (E. coli (ATCC 25922)): 1.83 µg/mL (≈ 3.34 µM) | IC50 [2]: 12.8 nM

Compound: N[C@@H]1CC(=O)N(c2ccc(S(=O)(=O)N3CCN(c4cc(C(F)(F)[C@@H]5CNCCO5)cc(Cl)n4)CC3)cc2)C1 [Example 104]
MIC [1]: 2.01 µg/mL (≈ 3.52 µM) | MIC (E. coli (ATCC 25922)): 1.01 µg/mL (≈ 1.77 µM) | IC50 [2]: 8.76 nM

Compound: NC1CC(=O)N(c2ccc(S(=O)(=O)N3CCN(c4cc(C(F)(F)c5ncccn5)cc(Cl)n4)CC3)cc2)C1 (stereo not shown) [Example 94, 4-Amino-1-[4-[4-[6-chloro-4-[difluoro(pyrimidin-2-yl)methyl]-2-pyridyl]piperazin-1-yl]sulfonylphenyl]pyrrolidin-2-one]
MIC [1]: 3.53 µg/mL (≈ 6.26 µM) | MIC (E. coli (ATCC 25922)): 3.53 µg/mL (≈ 6.26 µM) | IC50 [2]: 186 nM

Compound: CN(C)C1CN(CC2CC(=O)N(c3ccc(S(=O)(=O)N4CCN(c5cc(C(F)(F)F)cc(Cl)n5)CC4)cc3)C2)C1 (stereo not shown) [Example 42, 1-[4-[4-[6-Chloro-4-(trifluoromethyl)-2-pyridyl]piperazin-1-yl]sulfonylphenyl]-4-[[3-(dimethylamino)azetidin-1-yl]methyl]pyrrolidin-2-one]
MIC [1]: 10.4 µg/mL (≈ 17.2 µM) | MIC (E. coli (ATCC 25922)): 10.4 µg/mL (≈ 17.2 µM) | IC50 [2]: 15 nM

Compound: NCCN1CCC[C@H]2OC(=O)N(c3ccc(S(=O)(=O)N4CCN(c5cc(C(F)(F)F)cc(Cl)n5)CC4)cc3)[C@H]2C1 [Example 25, (3aS,8aR)-5-(2-aminoethyl)-3-[4-[4-[6-chloro-4-(trifluoromethyl)-2-pyridyl]piperazin-1-yl]sulfonylphenyl]-3a,4,6,7,8,8a-hexahydrooxazolo[4,5-c]azepin-2-one]
MIC [1]: 2.6 µg/mL (≈ 4.31 µM) | MIC (E. coli (ATCC 25922)): 2.6 µg/mL (≈ 4.31 µM) | IC50 [2]: 24.9 nM

Compound: N[C@@H]1CC(=O)N(c2ccc(S(=O)(=O)N3CCN(c4cc(C(F)(F)C5=CCNCC5)cc(Cl)n4)CC3)cc2)C1 [Example 106]
MIC [1]: 1.77 µg/mL (≈ 3.12 µM) | MIC (E. coli (ATCC 25922)): 1.77 µg/mL (≈ 3.12 µM) | IC50 [2]: 199 nM

Compound: CNC1CC(=O)N(c2ccc(S(=O)(=O)N3CCN(c4cc(C(F)(F)F)cc(Cl)n4)CC3)cc2)C1 (stereo not shown) [Example 44, 1-[4-[4-[6-chloro-4-(trifluoromethyl)-2-pyridyl]piperazin-1-yl]sulfonylphenyl]-4-(methylamino)pyrrolidin-2-one]
MIC [1]: 3.47 µg/mL (≈ 6.7 µM) | MIC (E. coli (ATCC 25922)): 1.73 µg/mL (≈ 3.34 µM) | IC50 [2]: 197 nM

Compound: O=C1OC(CO)CN1c1ccc(S(=O)(=O)N2CCN(c3cc(C(F)(F)[C@@H]4CNCCO4)cc(Cl)n3)CC2)cc1 (stereo partly drawn) [Example 110, 3-[4-[4-[6-Chloro-4-[difluoro-[(2S)-morpholin-2-yl]methyl]-2-pyridyl]piperazin-1-yl]sulfonylphenyl]-5-(hydroxymethyl)oxazolidin-2-one]
MIC [1]: 0.99 µg/mL (≈ 1.68 µM) | MIC (E. coli (ATCC 25922)): 0.99 µg/mL (≈ 1.68 µM) | IC50 [2]: 3.4 nM

Compound: NCC1CC(=O)N(c2ccc(S(=O)(=O)N3CCN(c4cc(C(F)(F)F)cc(Cl)n4)CC3)cc2)C1 (stereo not shown) [Example 2, 4-(Aminomethyl)-1-[4-[4-[6-chloro-4-(trifluoromethyl)-2-pyridyl]piperazin-1-yl]sulfonyl-phenyl]pyrrolidin-2-one]
MIC [1]: 3.95 µg/mL (≈ 7.63 µM) | MIC (E. coli (ATCC 25922)): 1.98 µg/mL (≈ 3.82 µM) | IC50 [2]: 84.9 nM

Compound: O=C1CC2(CNC2)CN1c1ccc(S(=O)(=O)N2CCN(c3cc(C(F)(F)F)cc(Cl)n3)CC2)cc1 [Example 12, 6-[4-[4-[6-Chloro-4-(trifluoromethyl)-2-pyridyl]piperazin-1-yl]sulfonylphenyl]-2,6-diazaspiro[3.4]octan-7-one]
MIC [1]: 4.03 µg/mL (≈ 7.6 µM) | MIC (E. coli (ATCC 25922)): 2.01 µg/mL (≈ 3.79 µM) | IC50 [2]: 69.8 nM

Compound: NCC1CN(c2ccc(S(=O)(=O)N3CCN(c4cc(C(F)(F)F)cc(Cl)n4)CC3)c(F)c2)C(=O)O1 (stereo not shown) [Example 64, 5-(Aminomethyl)-3-[4-[4-[6-chloro-4-(trifluoromethyl)-2-pyridyl]piperazin-1-yl]sulfonyl-3-fluoro-phenyl]oxazolidin-2-one]
MIC [1]: 14.6 µg/mL (≈ 27.1 µM) | MIC (E. coli (ATCC 25922)): 3.65 µg/mL (≈ 6.79 µM) | IC50 [2]: 264 nM

MIC [1]: 5.71 µg/mL (≈ 9.96 µM) | MIC (E. coli (ATCC 25922)): 1.91 µg/mL (≈ 3.33 µM)
Compound: O=C1CC(N2CCNCC2)CN1c1ccc(S(=O)(=O)N2CCN(c3cc(C(F)(F)F)cc(Cl)n3)CC2)cc1 (stereo not shown) [Example 47, 1-[4-[4-[6-Chloro-4-(trifluoromethyl)-2-pyridyl]piperazin-1-yl]sulfonylphenyl]-4-piperazin-1-yl-pyrrolidin-2-one]

MIC [1]: 0.94 µg/mL (≈ 1.66 µM) | MIC (E. coli (ATCC 25922)): 0.47 µg/mL (≈ 0.829 µM)
Compound: N[C@@H]1CC(=O)N(c2ccc(S(=O)(=O)N3CCN(c4cc(C(F)(F)C56CNC[C@H]5C6)cc(Cl)n4)CC3)cc2)C1 (stereo partly drawn) [Example 116, (4R)-4-amino-1-[4-[4-[4-[[cis-3-azabicyclo[3.1.0]hexan-1-yl]-difluoro-methyl]-6-chloro-2-pyridyl]piperazin-1-yl]sulfonylphenyl]pyrrolidin-2-one]
